Laboratory results from US10688093B2, “Methods, compositions, and uses of novel Fyn kinase inhibitors” (priority 2015, dated 2020).

Molecular target: full-length recombinant human FYN A (Homo sapiens (Human), UniProt P06241)
Assay: ADP-Glo Kinase Assay of FYN kinase inhibition
Format: biochemical
Details: secondary screen, re-synthesized and expanded compounds
Summary of the method: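 GST-tagged full-length FYN A (baculovirus, Sf9) at 3 pg preincubated 30 min RT with compound (10-point 3-fold series from 10 μM) in Tris pH 7.5/MgCl2 buffer. 12-mer tyrosine peptide plus 12.5 pmol ATP added, 90 min RT; ADP measured by ADP-Glo luminescence, IC50 from dose-response.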

Chain of full-length recombinant human FYN A (P06241 whole entry): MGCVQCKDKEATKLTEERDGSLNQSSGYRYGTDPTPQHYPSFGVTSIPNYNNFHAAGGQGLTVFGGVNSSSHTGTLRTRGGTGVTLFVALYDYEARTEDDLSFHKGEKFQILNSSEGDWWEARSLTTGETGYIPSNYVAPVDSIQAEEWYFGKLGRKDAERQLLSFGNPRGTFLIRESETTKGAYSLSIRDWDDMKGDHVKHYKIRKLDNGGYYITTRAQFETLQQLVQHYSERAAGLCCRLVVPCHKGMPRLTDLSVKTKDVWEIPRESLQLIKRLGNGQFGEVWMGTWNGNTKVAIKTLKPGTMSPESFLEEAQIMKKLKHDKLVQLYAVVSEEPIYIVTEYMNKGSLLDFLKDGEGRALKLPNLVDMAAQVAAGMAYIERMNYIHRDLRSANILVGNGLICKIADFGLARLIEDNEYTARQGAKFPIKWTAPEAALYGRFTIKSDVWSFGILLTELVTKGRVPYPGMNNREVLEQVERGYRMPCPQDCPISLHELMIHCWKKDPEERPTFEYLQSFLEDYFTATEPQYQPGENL

IC50 [nM]	SMILES
721	COc1ccc(-c2cnc3ccc(NCc4cccs4)nn23)cc1OC [BF000146992, 3-(3,4-dimetboxy-phenyl)-N-(2-thienyl-methyl)-imidazo[1,2-b]pyridazin-6-amine]
285	CCCNc1ccc2ncc(-c3ccc(OC)c(OC)c3)n2n1 [BF000147061, 3-(3,4-dimethoxy-phenyl)-N-propyl-imidazo[1,2-b]pyridazin-6-amine]
592	CCCNc1ccc2ncc(-c3cccc(O)c3)n2n1 [BF000147075, 3-[6-(propylamino)-imidazo[1,2-b]pyridazin-3-yl]phenol]
81.6	CCCNc1ccc2ncc(-c3ccc(O)c(OC)c3)n2n1 [BF000147080, 2-methoxy-4-[6-(propyl-amino)-imidazo[1,2-b]pyridazin-3-yl]phenol]
406	CCCNc1ccc2ncc(-c3cccc(C(C)=O)c3)n2n1 [BF000147088, 1-[3-[6-(propyl-amino)-imidazo[1,2-b]pyridazin-3-yl]phenyl]-ethanone]
494	COc1ccc(-c2cnc3ccc(NCc4ccccn4)nn23)cc1OC [BF000147233, 3-(3,4-dimethoxy-phenyl)-N-(2-pyridyl-methyl)-imidazo[1,2-b]pyridazin-6-amine]
1310	COc1cc(-c2cc(-c3ccccc3)cnc2N)cc(OC)c1OC [BF000312489, 5-phenyl-3-(3,4,5-trimethoxy-phenyl)-pyridin-2-amine]
232	COc1cc(-c2cc(-c3ccc(N4CCN(C)CC4)cc3)cnc2N)cc(OC)c1OC [BF000312520, 5-[4-(4-methyl-piperazin-1-yl)phenyl]-3-(3,4,5-trimethoxy-phenyl)-pyridin-2-amine]
709	COc1cc(-c2cc(-c3ccc(OCCCN(C)C)nc3)cnc2N)cc(OC)c1OC [BF000312521, 5-[6-(3-(dimethyl-amino)-propoxy]-3-pyridyl]-3-(3,4,5-trimethoxy-phenyl)-pyridin-2-amine]
526	COc1cc(-c2cc(-c3cccc(O)c3)cnc2N)cc(OC)c1OC [BF000312527, 3-[6-amino-5-(3,4,5-trimethoxy-phenyl)-3-pyridyl]-phenol]
494	COc1cc(-c2cc(-c3cccc(C(N)=O)c3)cnc2N)cc(OC)c1OC [BF000312539, 3-[6-amino-5-(3,4,5-trimethoxy-phenyl)-3-pyridyl]-benzamide]
458	COc1cc(-c2cc(-c3ccc(C(N)=O)cc3)cnc2N)cc(OC)c1OC [BF000312540, 4-[6-amino-5-(3,4,5-trimethoxy-phenyl)-3-pyridyl]-benzamide]
377	COc1cc(-c2cc(-c3ccc(C(=O)NC4CC4)cc3)cnc2N)cc(OC)c1OC [BF000312541, 4-[6-amino-5-(3,4,5-trimethoxy-phenyl)-3-pyridyl]-N-cyclopropyl-benzamide]
1000	COc1cc(-c2cc(-c3cccc(C(=O)NCCO)c3)cnc2N)cc(OC)c1OC [BF000312542, 3-[6-amino-5-(3,4,5-trimethoxy-phenyl)-3-pyridyl]-N-(2-hydroxy-ethyl)-benzamide]
674	COc1cc(-c2cc(-c3ccc(S(C)(=O)=O)cc3)cnc2N)cc(OC)c1OC [BF000312544, 5-(4-methyl-sulfonyl-phenyl)-3-(3,4,5-trimethoxy-phenyl)-pyridin-2-amine]
562	COc1cc(-c2cc(-c3cccc(NS(C)(=O)=O)c3)cnc2N)cc(OC)c1OC [BF000312545, N-[3-[6-amino-5-(3,4,5-trimethoxy-phenyl)-3-pyridyl]-phenyl]-methane-sulfonamide]
121	COc1cc(-c2cc(-c3ccc(N4CCN(C)CC4)cc3)cnc2N)ccc1O [BF000313028, 4-[2-amino-5-[4-(4-methylpiperazin-1-yl)phenyl]-3-pyridyl]-2-methoxy-phenol]
116	COc1cc(-c2cc(-c3cc(OC)c(OC)c(OC)c3)cnc2N)ccc1O [BF000313035, 4-[2-amino-5-(3,4,5-trimethoxy-phenyl)-3-pyridyl]-2-methoxy-phenol]
214	COc1cc(-c2cc(-c3ccc(C(N)=O)cc3)cnc2N)ccc1O [BF000313038, 4-[6-amino-5-(4-hydroxy-3-methoxy-phenyl)-3-pyridyl]-benzamide]
316	COc1cc(-c2cc(-c3ccc(S(C)(=O)=O)cc3)cnc2N)ccc1O [BF000313040, 4-[2-amino-5-(4-methyl-sulfolyl-phenyl)-3-pyridyl]-2-methoxy-phenol]
288	COc1cc(-c2cnc(N)c(-c3ccc(O)cc3)c2)cc(OC)c1OC [BF000313556, 4-[2-amino-5-(3,4,5-trimethoxy-phenyl)-3-pyridyl]-phenol]
1090	NC(=O)c1ccc(-c2cnc(N)c(-c3ccc(O)cc3)c2)cc1 [BF000313559, 4-[6-amino-5-(4-hydroxy-phenyl)-3-pyridyl]-benzamide]
898	CC(=O)Nc1cccc(-c2cnc(N)c(-c3ccc(O)cc3)c2)c1 [BF000313562, N-[3-[6-amino-5-(4-hydroxy-phenyl)-3-pyridyl]-phenyl]-acetamide]
1550	CS(=O)(=O)c1ccc(-c2cnc(N)c(-c3ccc(O)cc3)c2)cc1 [BF000313563, 4-[2-amino-5-(4-methyl-sulfonyl-phenyl)-3-pyridyl)-phenol]
624	COc1cc(-c2cnc3cnc(-c4cnn(C)c4)cn23)ccc1O [BF000333452, 2-methoxy-4-[6-(1-methyl-pyrazol-4-yl)-imidazo[1,2-a]pyrazin-3-yl]phenol]
705	CN(C)CCCNC(=O)c1ccc(-c2cn3c(-c4ccc(O)cc4)cnc3cn2)cc1 [BF000333874, N-[3-(dimethyl-amino)-propyl]-4-[3-(4-hydroxy-phenyl)-imidazo[1,2-a]pyrazin-6-yl]-benzamide]
486	CN(C)CCNC(=O)c1ccc(-c2cn3c(-c4ccc(O)cc4)cnc3cn2)cc1 [BF000333881, N-[2-(dimethyl-amino)-ethyl]-4-[3-(4-hydroxy-phenyl)-imidazo[1,2-a]pyrazin-6-yl]-benzamide]
740	O=C(NCCO)c1ccc(-c2cn3c(-c4ccc(O)cc4)cnc3cn2)cc1 [BF000333882, N-(2-hydroxy-ethyl)-4-[3-(4-hydroxy-phenyl)-imidazo[1,2-a]pyrazin-6-yl]benzamide]

SMILES	IC50 [nM]
CCCNc1ccc2ncc(-c3ccncc3)n2n1 [BF000147056, N-propyl-3-(4-pyridyl)-imidazo[1,2-b]pyridazin-6-amine]	217
CC(=O)c1cccc(-c2cnc3ccc(NCc4ccc5c(c4)OCO5)nn23)c1 [BF000147140, 1-[3-[6-(1,3-benzodioxol-5-ylmethyl-amino)-imidazo[1,2-b]pyridazin-3-yl]phenyl]-ethanone]	3190
COc1cc(-c2cnc3ccc(NC4CCOCC4)nn23)ccc1O [BF000147168]	113
COc1cc(-c2cnc3ccc(NC4CCOCC4)nn23)cc(OC)c1OC [BF000147394, N-tetrahydro-pyran-4-yl-3-(3,4,5-trimethoxy-phenyl)-imidazo[1,2-b]pyridazin-6-amine]	503
CN(C)C(=O)c1cccc(-c2cn3c(-c4ccc(O)cc4)cnc3cn2)c1 [BF000333343, 3-[3-(4-hydroxy-phenyl)-imidazo[1,2-a]pyrazin-6-yl]-N,N-dimethyl-benzamide]	871
CN1CCN(c2ccc(-c3cn4c(-c5ccc(O)cc5)cnc4cn3)cc2)CC1 [BF000333878, 4-[6-[4-(4-methyl-piperazin-1-yl)phenyl]-imidazo[1,2-a]pyrazin-3-yl]phenol]	465
